The text below walks through data of patent publication US20080161324A1, “Compositions and methods for treatment of viral diseases” (priority 2006, published 2008).

Counter-ions that a name gives are not always drawn. Like-named read-outs stand apart in the source and are kept apart here. Marks after values point to notes of the source that are not given here.

The subject of data set [1] is Huh7 cells expressing a subgenomic RNA replicon of Con1 (genotype 1b) sequence origin. In words: microbe, parasite or virus in culture. Format: cell-based, HCV.
The next data set has as its system HER1-2. The following applies: selective HER1 inhibitor (vs. HER1-2); cited from earlier work.
The conditions of data set [2]: in words; cited from earlier work.
Setting [3] is: Hepatitis C virus, Huh-7, 48 h; read-out: IC50.
Where [4] appears, read: Table 1; inhibition of luciferase activity, 48 hours.
The mark [5] stands for this setting: Table 1; inhibition of luciferase activity, 48 hours; read-out: IC50.
Setting [6] is: Hepatitis C virus, Huh-7, 48 h; read-out: IC25 (values noted with an asterisk).

As a reminder, the IC50 is the concentration needed to halve the response being measured. For the compound `CC(=O)Nc1ccccc1OCCCCCOCC(=O)Nc1ccccc1` [2′,2″-(Pentamethylenedioxy)diacetanilide], in data set [1] (setting [3]), the IC50 is 3.14 µM.
In the case of `CC(=O)Nc1cccc(OCCCCCOc2cccc(NC(C)=O)c2)c1` [3′,3″-(Pentamethylenedioxy)diacetanilide], the “IC25 (values noted with an asterisk)” value in data set [1] (setting [4]) is reported as 9.35*.
Regarding `N#C/C(=C\c1ccc(O)c(O)c1)C(=O)NCc1ccccc1` [AG-490], in data set [1] (setting [5]), the IC50 came to 5.03 µM.
`N#C/C(=C\c1ccc(O)c(O)c1)C(=O)Nc1ccccc1` [AG-494]: the half-maximal inhibitory concentration (IC50) in the data set with HER1-2 is 45 µM.
With `Nc1ncnc2c1ncn2CCOCP(=O)(O)O` [Adefovir (e.g., dipivoxil), Adefovir], the IC50 in data set [1] (Table 3; inhibition of luciferase activity, 48 hours; read-out: IC50) was determined as 0.319 µM.
As usually defined, the IC25 is the concentration at which the effect reaches the 25% level. Consider `Cc1ccc(/N=C/N(C)/C=N/c2ccc(C)cc2C)c(C)c1` [Amitraz], for which the IC25 in data set [1] (setting [6]) was 26.4 µM.
With `CC(=O)OC[C@H]1O[C@@H]([S-])[C@H](OC(C)=O)[C@@H](OC(C)=O)[C@@H]1OC(C)=O.CCP(CC)CC.[Au+]` [Auranofin], the solubility result in data set [2] is listed as “insoluble in water”.
`CC(C)NCC(O)COc1ccc(CCOCC2CC2)cc1` (stereo not drawn) [Betaxolol (e.g., hydrochloride), Betaxolol]: in data set [1] (Hepatitis C virus, Huh-7, 48 h, read-out: IC25 (values noted with an asterisk)), the IC25 was determined as 29.4 µM.
Regarding `CCCC(=O)O[C@H]1CN2CC[C@H](O)[C@@H]2[C@@H](O)[C@@H]1O` [Celgosivir], the concentration for an effect of 25% (IC25) in data set [1] (setting [6]) is 6.25 µM.
`O=C1[C@H](CC[C@H](O)c2ccc(F)cc2)[C@@H](c2ccc(O)cc2)N1c1ccc(F)cc1` [Ezetimibe]: the IC50 in data set [1] (setting [3]) is 4.2 µM.
In the case of `Clc1ccc(C(c2ccccc2Cl)C(Cl)Cl)cc1` (stereo not drawn) [Mitotane], in data set [1] (setting [6]), the IC25 was 28.1 µM.
Consider `COc1ccc(C(=O)NCc2cccnc2)cc1C(=O)NCc1cccnc1` [Picotamide], for which, in data set [1] (setting [6]), the IC25 came out at 28.7 µM.
Still for that read-out and setting: for `CCCCOc1ccc(OCCCN2CCOCC2)cc1` [Pramoxine (e.g., hydrochloride), Pramoxine] the value was 5.17 µM.
For the compound `COc1ccc(CCN(C)CCCC(C#N)(c2ccc(OC)c(OC)c2)C(C)C)cc1OC` (stereo not drawn) [R(+)-Verapamil (e.g., hydrochloride), R(+)-Verapamil], the IC50 in data set [1] (Hepatitis C virus, Huh-7, 48 h) was 15.7 µM.
Regarding `CC(C)=CC[C@@H](O)C1=CC(=O)c2c(O)ccc(O)c2C1=O` [Shikonin], in data set [1] (setting [6]), the IC25 was determined as 26.4 µM.
On the same count and under the same terms, the figure for `CO[C@H]1C[C@@H]2CC[C@@H](C)[C@@](O)(O2)C(=O)C(=O)N2CCCC[C@H]2C(=O)O[C@H]([C@H](C)C[C@@H]2CC[C@@H](O)[C@H](OC)C2)CC(=O)[C@H](C)/C=C(\C)[C@@H](O)[C@@H](OC)C(=O)[C@H](C)C[C@H](C)/C=C/C=C/C=C/1C` [Sirolimus] is 0.005 µM.
Regarding `N#C/C(=C\c1ccc(O)c(O)c1)C(N)=S` [Tyrphostin 47], the “IC25 (values noted with an asterisk)” value in data set [1] (setting [4]) is reported as 18.3*.
As for `O=C1CC(=O)c2c(Cl)c(Cl)c(Cl)c(Cl)c21` [UCH-L3 inhibitor], the “IC25 (values noted with an asterisk)” value in data set [1] (Table 1; inhibition of luciferase activity, 48 hours; in µM) is 19.7*.
On to Beta Escin, for which, in data set [1] (setting [5]), the half-inhibitory concentration (IC50) stood at 4.27 µM.
With Chlorophyllin, the IC50 in data set [1] (setting [5]) came to 1.3 µM.
Take Gramicidin: the IC50 in data set [1] (setting [5]) was found to be 0.017 µM.
As for Manganese gluconate, the IC50 in data set [1] (read-out: IC50) turned out to be 24.7 µM.
Take Tunicamycin: the IC50 in data set [1] (Table 2; inhibition of luciferase activity, 48 hours; read-out: IC50) stood at 0.107 µM.
Turning to Vitamin B12, in data set [1] (setting [5]), the IC50 is 8.28 µM.
